Experimental data taken from US20100173872A1, “Method and Composition for Treating Alzheimer's Disease and Dementias of Vascular Origin” (THE BOARD OF TRUSTEES OF THE UNIVERSITY OF ILLINOIS, priority 2002, published 2010).
Bridge positions count the residues as written; N and C are the ends. Square brackets hold non-standard residues; d marks the D form. Ends that are not written are not given here. Peptide text beside a SMILES is read from it.

How the values were obtained:
ET receptor = details: cited from earlier work; for effect of pretreatment on systemic hemodynamic and regional circulatory effects of ET-1: BQ123 10 μg ICV, centrally administered ET-1; for effect on hemodynamics or regional blood circulation: specific ETB receptor agonists, separate experiments
[1] = Effect of ET-1 infusion on brain blood flow in control and Aβ-treated rats; format: in vivo, rat; details: 30 minutes infusion; Aβ-treated vs control rats
Method: Studies in 3-month-old rats to determine the effect of Aβ on systemic hemodynamics and regional blood circulation were performed. […] The effect of ET-1 on the brain blood flow of control and Aβ treated rats also was determined (FIG. 4).
Once infusion was stopped, a rebound increase in blood flow was observed. It can be inferred that Aβ increased the endogenous concentration of ET-1, leading to vasoconstriction. Accordingly, the administration of an ET-1 antagonist can cause a rebound increase in blood flow.

[2] = tested on: sympathetic nerve activity; details: ET-1 90 ng; cited from earlier work

CC(C)C[C@@H]1NC(=O)[C@@H](C(C)C)NC(=O)[C@@H]2CCCN2C(=O)[C@@H](CC(=O)O)NC(=O)[C@@H](Cc2c[nH]c3ccccc23)NC1=O [BQ123, cyclo(-D-Trp-D-Asp-Pro-D-Val-Leu-)] (cyclo(L[dW][dD]P[dV]))
effect of pretreatment on systemic hemodynamic and regional circulatory effects of ET-1 (ET receptor): blocked

CC(C)NCC(O)COc1cccc2ccccc12 (stereo not drawn) [propranolol]
effect of pretreatment on systemic hemodynamic and regional circulatory effects of ET-1 (ET receptor): blocked

ET-1: endothelin-1, a potent cerebrovascular vasoconstrictor peptide; ETA receptor agonist (CSCSSLMDKECVYFCHLDIIW; disulfide 1-15, 3-11; ends not checked; UniProt P05305 53-73, looked up)
effect of ET-1 infusion on brain blood flow [1]: more marked in Aβ-treated rats | cardiac output and stroke volume (ET receptor; 45 ng ICV): significant decreases | total peripheral resistance (ET receptor; 45 ng ICV): remained unchanged | sympathetic nerve activity [2]: significantly decreased

ET-2: ETA receptor agonist (CSCSSWLDKECVYFCHLDIIW; disulfide 1-15, 3-11; ends not checked; UniProt P20800 49-69, looked up)
intensity of effects in comparison to ET-1 and SRT6b (ET receptor; ET-2 90 ng ICV): less intense

ET-3: specific ETB receptor agonist
effect on hemodynamics or regional blood circulation (ET receptor): did not affect

sarafotoxin 6c
effect on hemodynamics or regional blood circulation (ET receptor): did not affect
